{"source": "ChEMBL document CHEMBL5260827", "about": "“Fructose-1,6-bisphosphatase inhibitors: A new valid approach for management of type 2 diabetes mellitus” (Eur J Med Chem, 2017)", "key": {"[1]": {"molecular_target": "T1, Fructose-1,6-bisphosphatase 1 (Homo sapiens, UniProt P09467)", "T1 sequence (P09467 whole entry)": "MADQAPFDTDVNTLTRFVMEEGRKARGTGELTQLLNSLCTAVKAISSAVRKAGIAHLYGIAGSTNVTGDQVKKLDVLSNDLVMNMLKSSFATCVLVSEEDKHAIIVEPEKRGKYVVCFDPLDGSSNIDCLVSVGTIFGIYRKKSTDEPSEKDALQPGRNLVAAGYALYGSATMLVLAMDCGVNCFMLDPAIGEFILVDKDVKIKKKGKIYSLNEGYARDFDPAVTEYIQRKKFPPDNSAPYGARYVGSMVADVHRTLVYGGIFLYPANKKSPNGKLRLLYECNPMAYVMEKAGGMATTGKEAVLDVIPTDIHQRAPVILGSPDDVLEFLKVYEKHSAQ", "assay": "Inhibition of human liver FBPase by spectrophotometric method", "format": "tissue-based"}, "[2]": {"molecular_target": "T1, Fructose-1,6-bisphosphatase 1", "assay": "Inhibition of human liver FBPase expressed in Escherichia coli BL21 (DE3) measured after 48 hrs by spectrophotometry analysis"}, "[3]": {"assay": "Tmax in Cynomolgus monkey at 10 mg/kg, po upto 24 hrs by LC/MS/MS analysis", "format": "ADME, organism-based, Macaca fascicularis", "conditions": "in vivo"}, "[4]": {"assay": "Inhibition of rat FBPase"}, "Rattus norvegicus": {"test_system": "Rattus norvegicus", "assay": "Hypoglycemic activity in ZDF rats assessed as reduction in blood glucose level at 10 to 300 mg/kg, po", "format": "functional", "conditions": "dose 10-300 mg/kg"}, "[5]": {"assay": "Half life in Cynomolgus monkey at 10 mg/kg, po", "format": "ADME, organism-based, Macaca fascicularis", "conditions": "in vivo"}, "[6]": {"assay": "Inhibition of Cynomolgus monkey FBPase", "parameters": "species or system Macaca fascicularis"}, "Mus musculus": {"test_system": "Mus musculus", "assay": "Hypoglycemic activity in db/db mouse assessed as reduction in blood glucose level at 300 mg/kg, po administered for 5 days", "format": "functional", "conditions": "time 5 day"}, "[7]": {"assay": "Cmax in Cynomolgus monkey at 10 mg/kg, po measured after 3 hrs by LC/MS/MS analysis", "format": "ADME, organism-based, Macaca fascicularis", "parameters": "dose 10 mg/kg, time 3 hrs, route po", "conditions": "in vivo"}, "Hepatocyte": {"test_system": "Hepatocyte", "assay": "Inhibition of glucose production in human hepatocyte assessed as reduction in […]", "format": "functional, cell-based"}, "[8]": {"assay": "Oral bioavailability in cynomolgus monkey at 10 mg/kg", "format": "ADME, organism-based, Macaca fascicularis", "conditions": "in vivo"}, "[9]": {"molecular_target": "T1, Fructose-1,6-bisphosphatase 1", "assay": "Inhibition of human liver FBPase"}, "[10]": {"molecular_target": "T1, Fructose-1,6-bisphosphatase 1", "assay": "biochemical"}}, "note": "pEC50, pIC50: −log10 of the molar value."}
{"smiles": "CSc1nc(N)c2nc(-c3ccc(P(=O)(O)O)o3)n(CC(C)(C)C)c2n1", "values": [{"measurement": "pIC50", "setting": "[1]", "result": 6.15}]}
{"smiles": "COC(=O)c1ccc(S(=O)(=O)n2cccc2)cc1", "values": [{"measurement": "pIC50", "setting": "[2]", "result": 7.49}]}
{"smiles": "CC(C)(C)C(=O)c1sc(N)nc1-c1ccc(P(=O)(O)O)o1", "values": [{"measurement": "Tmax", "setting": "[3]", "result": 3.3, "unit": "h"}, {"measurement": "pIC50", "setting": "[4]", "result": 6.72}, {"measurement": "Activity", "setting": "Rattus norvegicus", "result": 200, "unit": "mg/dL"}, {"measurement": "half-life", "setting": "[5]", "result": 7.6, "unit": "h"}, {"measurement": "pIC50", "setting": "[6]", "result": 6.92}, {"measurement": "Activity", "setting": "Mus musculus", "result": 350, "unit": "mg/dL"}, {"measurement": "Cmax", "setting": "[7]", "result": 2100, "unit": "ng/mL"}, {"measurement": "pEC50", "setting": "Hepatocyte", "result": 6.85}, {"measurement": "bioavailability", "setting": "[8]", "result": 52, "unit": "%"}]}
{"smiles": "COc1ccc(CC(=O)Nc2cccc(-c3nnc(-c4cccc(Cl)c4)o3)c2)cc1OC", "values": [{"measurement": "pIC50", "setting": "[9]", "result": 4.81}]}
{"smiles": "CC1SC(=O)NN=C1c1ccc2[nH]c(-c3ccc(-n4ccnc4)cc3)nc2c1", "note": "(stereo unspecified)", "values": [{"measurement": "pIC50", "setting": "[1]", "result": 4.44}]}
{"smiles": "N#Cc1ccc(C(C(=O)NCCc2ccc(O)cc2)N2C(=O)C3Cc4ccc(O)cc4CN3C(=O)C2CC2CCCCC2)cc1", "note": "(stereo unspecified)", "values": [{"measurement": "pIC50", "setting": "[1]", "result": 6.43}]}
{"smiles": "CC1=CC=CN2C(CC(C)C)C(c3ccc(P(=O)(O)O)o3)=NC12", "note": "(stereo unspecified)", "values": [{"measurement": "pIC50", "setting": "[1]", "result": 5.80}]}
{"smiles": "CCOc1cc2ncnc(Nc3cccc(Cl)c3)c2cc1OCC", "values": [{"measurement": "Km", "setting": "Oryctolagus cuniculus", "result": 2.7, "unit": "µM"}]}
{"smiles": "CSc1nc(N)c2nc(-c3ccc(P(=O)(O)O)o3)n(CC(C)C)c2n1", "values": [{"measurement": "pIC50", "setting": "[10]", "result": 3.15}]}
{"smiles": "CCCC(C)C(=O)c1sc(N)nc1-c1ccc(P(=O)(O)O)o1", "note": "(stereo unspecified)", "values": [{"measurement": "pIC50", "setting": "[1]", "result": 7.96}]}
{"smiles": "COc1ccc(CC(=O)Nc2cccc(-c3nnc(-c4ccc(C)cc4)o3)c2)cc1OC", "values": [{"measurement": "pIC50", "setting": "[9]", "result": 5.35}]}
{"smiles": "O=P(O)(O)OC[C@H]1O[C@H](COP(=O)(O)O)[C@@H](O)[C@@H]1O", "values": [{"measurement": "pIC50", "setting": "[1]", "result": 5.70}]}
{"smiles": "CC(C)Cn1c(C2CCC(P(=O)(O)O)O2)nc2c(N)c(F)cc(CCBr)c21", "note": "(stereo unspecified)", "values": [{"measurement": "pIC50", "setting": "[1]", "result": 7.47}]}
